The target in one data set is T1, JAK2 (Homo sapiens, UniProt O60674).
T1 construct: purchased Reaction Biology Corp, Malvern, PA (contract testing)
Description: JAK2 biochemical test (33P-ATP filter binding, Reaction Biology). The following applies: read-out: Inhibition of JAK2 (IC50). The procedure: (§1) The tests were conducted by Reaction Biology Corp, Malvern, PA (Anastassiadis et al. Nat Biotechnol. 2011; 29(11):1039-45). The step is briefly described as follows, using the basic reaction buffer: 20 mM Hepes (pH 7.5), 10 mM MgCl2, 1 mM EGTA, 0.02% Brij35, 0.02 mg/ml BSA, 0.1 mM Na3VO4, 2 mM DTT and 1% DMSO. The required cofactor was added to each kinase reaction respectively. Each reaction was performed according to the following reaction steps: 1) Preparing the designated substrate in the newly prepared basic reaction buffer; 2) Transferring the required cofactor to the above matrix solution; 3) Transferring the designated kinase to the substrate solution and mixing well slightly; 4) Transferring a compound of Formula (I) in DMSO to the kinase reaction mixture with Acoustic technique (Echo550; nanoliter range), culturing for 20 minutes at room temperature; 5) Introducing ^33P-ATP (specific activity: 10 μCi/μl) to the reaction mixture to trigger a reaction; 6) Culturing at room temperature and conducting a kinase reaction for 2 hours; 7) Plotting the reaction on P81 ion exchange paper; and 8) Testing the kinase activity with a filter binding assay. The results shown in Table 1 indicate that compounds of Formulae (I)-(III) are potent and selective TYK2/JAK1 inhibitors.

The next data set addresses T2, JAK3 (Homo sapiens, UniProt P52333).
T2 construct: purchased Reaction Biology Corp, Malvern, PA (contract testing)
T2 sequence (P52333 1-1124): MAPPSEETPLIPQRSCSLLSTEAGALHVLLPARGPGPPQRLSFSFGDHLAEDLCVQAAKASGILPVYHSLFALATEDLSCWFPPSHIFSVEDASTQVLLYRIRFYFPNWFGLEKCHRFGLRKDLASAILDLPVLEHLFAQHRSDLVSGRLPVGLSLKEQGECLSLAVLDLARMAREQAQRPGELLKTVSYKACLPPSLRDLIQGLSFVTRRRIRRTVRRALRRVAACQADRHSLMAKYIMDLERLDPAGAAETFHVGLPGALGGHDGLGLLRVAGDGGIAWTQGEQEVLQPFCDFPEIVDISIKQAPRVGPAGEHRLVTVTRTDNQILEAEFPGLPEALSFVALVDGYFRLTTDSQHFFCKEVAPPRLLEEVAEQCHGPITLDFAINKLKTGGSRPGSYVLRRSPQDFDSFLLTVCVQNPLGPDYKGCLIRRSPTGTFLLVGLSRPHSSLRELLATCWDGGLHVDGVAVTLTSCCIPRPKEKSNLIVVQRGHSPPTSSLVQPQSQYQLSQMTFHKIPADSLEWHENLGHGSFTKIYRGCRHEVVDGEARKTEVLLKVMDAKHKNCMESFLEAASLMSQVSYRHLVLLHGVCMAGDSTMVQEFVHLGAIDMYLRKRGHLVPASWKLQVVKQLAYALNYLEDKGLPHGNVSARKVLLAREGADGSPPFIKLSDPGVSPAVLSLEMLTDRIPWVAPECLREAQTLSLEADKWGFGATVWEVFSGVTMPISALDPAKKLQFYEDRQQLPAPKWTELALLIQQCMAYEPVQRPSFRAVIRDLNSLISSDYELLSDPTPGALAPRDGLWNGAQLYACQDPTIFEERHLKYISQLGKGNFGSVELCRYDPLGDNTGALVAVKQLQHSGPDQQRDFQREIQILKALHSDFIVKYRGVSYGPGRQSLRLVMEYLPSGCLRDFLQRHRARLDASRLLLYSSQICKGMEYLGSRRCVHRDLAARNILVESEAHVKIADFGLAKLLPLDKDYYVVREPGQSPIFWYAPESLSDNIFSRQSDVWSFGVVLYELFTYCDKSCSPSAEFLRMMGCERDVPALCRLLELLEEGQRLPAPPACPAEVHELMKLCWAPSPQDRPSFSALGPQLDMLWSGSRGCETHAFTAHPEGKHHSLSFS
In words: JAK3 biochemical test (33P-ATP filter binding, Reaction Biology). The settings on record: read-out: Inhibition of JAK3 (IC50). The procedure:
as §1

Data set [1] relates to HT22 cells. Description: Viability of HT22 cells with LPS but without BV2 microglia. It is filed as cell-based. The following applies: 1.7 μM, presence or absence of LPS (200 ng/ml, 96 h). As for the experimental part:
(§2) This testing was performed to test the ability of compounds to alleviate the injury of HT22 cells induced by LPS activated BV2 cells. The testing was performed according to the following procedure: 1) Microglia BV2 cells were co-cultured on transwell inserts with HT22hippocampal neurons. BV2 cells were stimulated with LPS (200 ng/ml) for 96 h after treatment with a compound of Formula (II) at 1.7 μM. 2) HT22 cells were pre-treated with a compound of Formula (II) at 1.7 μM for 30 min and subsequently stimulated with LPS (200 ng/ml) for 96 h. 3) BV2 cells were treated using LPS. IL-6, TNF and MCP-1 productions were measured in cell supernatants using CBA assay.
(§3) The protective effects of a compound of Formula (II) on microglial activation-induced neuronal death were evaluated in a BV2 microglia/HT22 neuron co-culture. Following stimulation of BV2 microglia with LPS (200 ng/mL), there was a marked reduction in the viability of co-cultured HT22 cells.

For a further data set, the target named is T3, TYK2 (Homo sapiens, UniProt P29597).
T3 construct: purchased Reaction Biology Corp, Malvern, PA (contract testing)
Description: TYK2 biochemical test (33P-ATP filter binding, Reaction Biology). The following applies: read-out: Inhibition of TYK2 (IC50). The procedure: as §1

The subject of data set [2] is HT22 cells. In words: HT22 neuronal cell death induced by LPS activated BV2 microglia (transwell co-culture). The data set is classed as cell-based. The following applies: 1.7 μM pre-treatment of BV2, LPS 200 ng/ml, 96 h. As for the experimental part:
as §2, §3

The nature of data set [3]: Brain penetration in mice. The settings on record: male, mouse, 30 mg/kg oral gavage, 4-hour post-dosing. It is filed as in vivo, C57BL/6 mice. As for the experimental part: This testing was performed to test the ability of compounds to penetrate the blood-brain-barrier in mice. The testing was performed according to the following procedure: 1) for each compound, take 3 male C57BL/6 mice with body weight of 17-18 g, formulate compound using 0.5% HPMC/water suspension at concentration of 3 mg/ml; 2) After fasting overnight, administer compound at 30 mg/kg by oral gavage; 3) Take plasma samples at 1, 2, 4 hours post-dosing; 4) At 4-hour post-dosing, also take brain tissues and cerebrospinal fluid (CSF) fluid; 5) Analyze compound concentration in plasma, brain tissue, and CSF fluid using LC-MS/MS method.

Here are results for one compound from patent US20250032465A1, “METHODS OF TREATING CNS DISORDERS” (HANGZHOU HIGHLIGHTLL PHARMACEUTICAL CO., LTD, priority 2021, published 2025).

The structures appear in SMILES notation. pIC50: −log10 of the molar value. “Also recorded” adds a separate entry of the source. Read-outs that look alike come from different tables or passages of the source.

T1 sequence (O60674 whole entry): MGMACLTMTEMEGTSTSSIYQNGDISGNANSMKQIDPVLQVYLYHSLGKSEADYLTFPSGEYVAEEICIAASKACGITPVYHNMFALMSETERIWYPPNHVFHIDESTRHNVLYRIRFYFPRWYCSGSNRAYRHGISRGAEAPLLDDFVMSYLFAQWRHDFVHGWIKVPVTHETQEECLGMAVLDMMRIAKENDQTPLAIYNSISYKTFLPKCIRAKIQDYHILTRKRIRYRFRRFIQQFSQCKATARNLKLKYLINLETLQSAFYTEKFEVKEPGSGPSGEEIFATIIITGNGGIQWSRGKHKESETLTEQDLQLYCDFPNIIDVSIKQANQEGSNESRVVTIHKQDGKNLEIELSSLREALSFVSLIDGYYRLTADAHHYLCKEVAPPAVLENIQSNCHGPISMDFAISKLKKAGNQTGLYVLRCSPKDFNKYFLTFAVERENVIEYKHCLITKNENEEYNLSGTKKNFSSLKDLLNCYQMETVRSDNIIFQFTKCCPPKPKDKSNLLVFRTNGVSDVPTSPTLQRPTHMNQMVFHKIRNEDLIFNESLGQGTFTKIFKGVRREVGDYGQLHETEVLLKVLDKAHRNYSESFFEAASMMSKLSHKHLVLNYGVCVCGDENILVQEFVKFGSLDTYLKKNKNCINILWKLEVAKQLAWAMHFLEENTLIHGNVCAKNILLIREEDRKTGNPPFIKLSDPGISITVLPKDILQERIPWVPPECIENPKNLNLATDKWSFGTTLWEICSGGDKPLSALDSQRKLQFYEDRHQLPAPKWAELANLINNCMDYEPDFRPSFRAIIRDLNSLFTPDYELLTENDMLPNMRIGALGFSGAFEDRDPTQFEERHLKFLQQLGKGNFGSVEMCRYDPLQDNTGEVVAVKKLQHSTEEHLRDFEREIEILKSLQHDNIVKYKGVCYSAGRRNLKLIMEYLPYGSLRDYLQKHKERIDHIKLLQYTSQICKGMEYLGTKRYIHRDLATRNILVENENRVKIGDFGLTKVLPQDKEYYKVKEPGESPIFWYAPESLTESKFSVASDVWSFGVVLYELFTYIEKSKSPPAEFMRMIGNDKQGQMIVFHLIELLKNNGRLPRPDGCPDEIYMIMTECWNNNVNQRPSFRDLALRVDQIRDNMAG
T3 sequence (P29597 whole entry): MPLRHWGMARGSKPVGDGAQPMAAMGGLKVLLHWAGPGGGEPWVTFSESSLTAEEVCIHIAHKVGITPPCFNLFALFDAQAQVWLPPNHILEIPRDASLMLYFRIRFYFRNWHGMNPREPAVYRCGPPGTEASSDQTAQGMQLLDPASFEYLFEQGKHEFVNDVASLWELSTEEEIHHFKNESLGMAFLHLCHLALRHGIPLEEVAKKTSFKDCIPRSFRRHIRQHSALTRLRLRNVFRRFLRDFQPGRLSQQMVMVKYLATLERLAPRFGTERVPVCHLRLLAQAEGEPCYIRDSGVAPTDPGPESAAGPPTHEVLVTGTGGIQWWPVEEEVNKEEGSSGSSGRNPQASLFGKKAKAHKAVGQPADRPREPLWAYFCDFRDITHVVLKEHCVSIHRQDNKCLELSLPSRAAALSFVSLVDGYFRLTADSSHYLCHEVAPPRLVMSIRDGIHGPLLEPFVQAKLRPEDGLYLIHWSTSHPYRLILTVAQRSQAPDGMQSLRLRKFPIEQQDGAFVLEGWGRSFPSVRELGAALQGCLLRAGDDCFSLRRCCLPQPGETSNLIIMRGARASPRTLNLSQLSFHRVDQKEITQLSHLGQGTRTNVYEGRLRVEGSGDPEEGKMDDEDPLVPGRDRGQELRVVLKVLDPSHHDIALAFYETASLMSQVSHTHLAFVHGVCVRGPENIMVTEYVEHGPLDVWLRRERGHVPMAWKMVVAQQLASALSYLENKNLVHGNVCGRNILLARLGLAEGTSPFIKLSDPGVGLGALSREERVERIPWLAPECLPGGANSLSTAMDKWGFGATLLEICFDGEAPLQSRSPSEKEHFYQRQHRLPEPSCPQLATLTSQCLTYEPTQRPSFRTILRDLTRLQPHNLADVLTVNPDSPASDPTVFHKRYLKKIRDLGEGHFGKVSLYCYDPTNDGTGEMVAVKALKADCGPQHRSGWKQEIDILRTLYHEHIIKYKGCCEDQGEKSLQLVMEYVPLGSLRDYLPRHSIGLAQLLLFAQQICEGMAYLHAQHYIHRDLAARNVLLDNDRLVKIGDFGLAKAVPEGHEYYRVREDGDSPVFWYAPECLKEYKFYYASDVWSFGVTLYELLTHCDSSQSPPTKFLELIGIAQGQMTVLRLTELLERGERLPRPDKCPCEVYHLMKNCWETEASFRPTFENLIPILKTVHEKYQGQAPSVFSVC

For orientation: pIC50 means the IC50 on a negative log10 scale, so that one unit is a factor of ten. In the case of `Cc1nc2cnc3ccoc3c2n1[C@H]1CC[C@H](CC#N)OC1` [Formula (II)], the pIC50 on JAK2 is less than 7.00; on JAK3, less than 7.00; at TYK2 it was greater than 8.00. Also, the “Viability of HT22 cells” value in the data set on HT22 cells [1] was “did not affect the viability”. The “Toxicity to HT22 cells (neuronal cell death) from LPS stimulation of BV2 microglia” value in the data set with HT22 cells [2] is on record as “significantly reduced toxicity to HT22 cells; also recorded: reduced HT22 neuronal cell death”. Further, the Kp at 4 h in data set [3] (C57BL/6, CSF/plasma, read-out: CSF (ng/ml)/ Plasma (ng/ml)) was greater than 0.15; in data set [3] (C57BL/6, brain/plasma, read-out: Brain (ng/ml)/ Plasma (ng/ml)), greater than 0.3.
